Patent publication US20210369874A1, “COMPOSITION FOR DETECTING BIOFILMS ON VIABLE TISSUES” (CONVATEC TECHNOLOGIES INC., priority 2010, published 2021)
Where “and” joins values, the source holds several entries; their conditions need not be identical. Equal values may be shown once.

Assays:
Assay type in all cases: cell-based
[1] = system: mixed biofilms of Staphylococcus aureus and Pseudomonas aeruginosa; assay: Assessment of biofilm stains using the CDC biofilm reactor; conditions: 100 μM stain, two minutes, 48 hour mixed biofilms, n=9
Procedure: A Centre for Disease Control (CDC) biofilm reactor was used to culture 48 hour mixed biofilms of Staphylococcus aureus and Pseudomonas aeruginosa. Briefly, biofilms were formed on coupons on reactor rods which were held within the reactor vessel containing a continuously mixed culture of S. aureus and P. aeruginosa at 35° C. Biofilm-containing coupons were removed from the rods, rinsed once by dipping in sterile saline for 5 seconds, then incubated in 10 ml volumes of the following biofilm stains at 100 μM concentration in deionised water, in the dark for two minutes: Erythrosine; Rose Bengal; Alcian Blue; Rhodamine B; Rhodamine 123; Rose Bengal with 2% w/v EDTA and 1% w/v BaCl (RBEB). Following another rinse in saline, nine coupons for each stain were each added to 2 ml volumes of 2% SDS for stomaching at ‘high’ setting for 1 minute then incubated overnight in the dark at 37° C., for digestion. Samples were then spun at 13,000 rpm for 5 minutes to separate the supernatant from digested cell debris. Absorption spectra of the aspired supernatants were then measured in a spectrophotometer and these spectra compared to spectra of known concentrations (100 μM) of each stain in 2% SDS.

P. aeruginosa biofilms = assay: Rose Bengal staining of biofilms, membrane filter biofilm model (P. aeruginosa); conditions: 30 seconds
Procedure: (§1) A membrane filter biofilm model was used to study the effect of Rose Bengal concentration on the efficacy of biofilm staining. Briefly, a 5 μl volume of a 5×10^5 cfu/ml suspension of S. aureus or P. aeruginosa was added to the centre of sterile membrane filter discs (pore size 0.2 μm; Anodise, Whatman) which were placed onto 7 ml volumes of sterile Tryptic Soya Broth in lidded 6-well plates. Samples were incubated for 4 hours (immature biofilms), and 24 and 48 hours (mature biofilms), and excess planktonic cells were rinsed from the filters. The biofilms on the filters were stained by pipetting 2 ml volumes of Rose Bengal (60 μM or 300 μM) or saline (negative control) for 30 seconds, followed by rinsing. Rose Bengal was recovered from the biofilm samples by stomaching and overnight digestion in 2% sodium dodecyl sulphate, centrifugation, then measuring of absorption spectra in a UV-vis spectrophotometer. Rose Bengal uptake per sample was determined by comparison of absorption values with a standard curve of Rose Bengal in 2% SDS. […] Only at the highest concentrations of 300 μM did the immature, 4-hour biofilms appear to be stained, although this was likely due to some staining of the filters themselves. […] This simple method for quantifying the uptake of Rose Bengal by biofilms utilises the absorption spectra of the dye. Using the absorption spectra to quantify the dye is similar to detecting the fluorescence using a light source with optical filters. Uptake could then alternatively be observed qualitatively using the naked eye or by observing the fluorescence emission of the Rose Bengal in conjunction with a light source and optical filter.

S. aureus biofilms = assay: Rose Bengal staining of biofilms, membrane filter biofilm model (S. aureus); conditions: 30 seconds
Procedure: as §1

[2] = system: mixed biofilms of Staphylococcus aureus and Pseudomonas aeruginosa; assay: Assessment of biofilm stains using the constant-depth biofilm fermenter (CDFF); conditions: 100 μM stain, two minutes, 4-day mixed biofilms, n=6
Excerpt: A constant depth biofilm fermenter (CDFF) was used to culture 4-day mixed biofilms of Staphylococcus aureus and Pseudomonas aeruginosa. Briefly, biofilms were formed in recesses in 15 PTFE pans around the rim of a rotating steel turntable onto which inoculum or sterile growth media was allowed to steadily drip. A scraper bar distributed bacterial inoculum or media over the pans as the turntable rotated, maintaining the biofilms at a steady depth. Each pan contained 5 removable plugs, 4 mm in diameter which were recessed to a depth of 300 μm. The resulting biofilms that grew in the plug recesses were reproducible in terms of appearance and microbiological composition and could be removed from the CDFF through a sampling port using sterile instruments. […] Absorption spectra of the aspired supernatants were then measured in a spectrophotometer and these spectra compared to spectra of known concentrations (100 μM) of each stain in 2% SDS.

[3] = P. aeruginosa biofilm age 4 h, [RB] 60 μM
[4] = S. aureus biofilm age 4 h, [RB] 60 μM

## Alcian Blue
[1]
  biofilm staining expressed as ratio of measured absorption: absorption at 100 1.1M (i.e. concentration) (FIG. 2b): most effective biofilm stain

## O=C([O-])c1c(Cl)c(Cl)c(Cl)c(Cl)c1-c1c2cc(I)c(=O)c(I)c-2oc2c(I)c([O-])c(I)cc12.[Na+].[Na+] [Rose Bengal]
P. aeruginosa biofilms; [3]
  Rose Bengal uptake per sample, Avg: 0
  Rose Bengal uptake per sample, single replicates 1-3: 0
P. aeruginosa biofilms; P. aeruginosa biofilm age 4 h, [RB] 300 μM, likely some staining of the filters themselves
  Rose Bengal uptake per sample, Avg: 1.72
P. aeruginosa biofilms; P. aeruginosa biofilm age 4 h, [RB] 300 μM, likely some staining of the filters themselves, listed as RB
  Rose Bengal uptake per sample, single replicates 1-3: 1.52 and 1.76 and 1.88
P. aeruginosa biofilms; P. aeruginosa biofilm age 24 h, [RB] 60 μM
  Rose Bengal uptake per sample, Avg: 1.94
P. aeruginosa biofilms; P. aeruginosa biofilm age 24 h, [RB] 60 μM, listed as RB
  Rose Bengal uptake per sample, single replicates 1-3: 2.04 and 1.76 and 2.02
P. aeruginosa biofilms; P. aeruginosa biofilm age 24 h, [RB] 300 μM
  Rose Bengal uptake per sample, Avg: 5.10
P. aeruginosa biofilms; P. aeruginosa biofilm age 24 h, [RB] 300 μM, listed as RB
  Rose Bengal uptake per sample, single replicates 1-3: 5.05 and 5.84 and 4.41
P. aeruginosa biofilms; P. aeruginosa biofilm age 48 h, [RB] 60 μM
  Rose Bengal uptake per sample, Avg: 2.39
P. aeruginosa biofilms; P. aeruginosa biofilm age 48 h, [RB] 60 μM, listed as RB
  Rose Bengal uptake per sample, single replicates 1-3: 3.15 and 1.66 and 2.37
P. aeruginosa biofilms; P. aeruginosa biofilm age 48 h, [RB] 300 μM
  Rose Bengal uptake per sample, Avg: 7.30
P. aeruginosa biofilms; P. aeruginosa biofilm age 48 h, [RB] 300 μM, listed as RB
  Rose Bengal uptake per sample, single replicates 1-3: 6.20 and 9.01 and 6.69
P. aeruginosa biofilms; P. aeruginosa, 24 and 48 hours biofilms, 60 μM or 300 μM
  Rose Bengal uptake by mature biofilms (in words): dye concentration- and biofilm age-dependent manner
S. aureus biofilms; [4]
  Rose Bengal uptake per sample, Avg: 0
  Rose Bengal uptake per sample, single replicates 1-3: 0
S. aureus biofilms; S. aureus biofilm age 4 h, [RB] 300 μM, likely some staining of the filters themselves
  Rose Bengal uptake per sample, Avg: 1.56
S. aureus biofilms; S. aureus biofilm age 4 h, [RB] 300 μM, likely some staining of the filters themselves, listed as RB
  Rose Bengal uptake per sample, single replicates 1-3: 1.59 and 1.45 and 1.64
S. aureus biofilms; S. aureus biofilm age 24 h, [RB] 60 μM
  Rose Bengal uptake per sample, Avg: 1.85
S. aureus biofilms; S. aureus biofilm age 24 h, [RB] 60 μM, listed as RB
  Rose Bengal uptake per sample, single replicates 1-3: 1.66 and 1.72 and 2.17
S. aureus biofilms; S. aureus biofilm age 24 h, [RB] 300 μM
  Rose Bengal uptake per sample, Avg: 4.44
S. aureus biofilms; S. aureus biofilm age 24 h, [RB] 300 μM, listed as RB
  Rose Bengal uptake per sample, single replicates 1-3: 4.82 and 4.55 and 3.95
S. aureus biofilms; S. aureus biofilm age 48 h, [RB] 60 μM
  Rose Bengal uptake per sample, Avg: 1.24
S. aureus biofilms; S. aureus biofilm age 48 h, [RB] 60 μM, listed as RB
  Rose Bengal uptake per sample, single replicates 1-3: 1.22 and 1.12 and 1.37
S. aureus biofilms; S. aureus biofilm age 48 h, [RB] 300 μM
  Rose Bengal uptake per sample, Avg: 5.72
S. aureus biofilms; S. aureus biofilm age 48 h, [RB] 300 μM, listed as RB
  Rose Bengal uptake per sample, single replicates 1-3: 6.26 and 5.18 and 5.71
S. aureus biofilms; S. aureus, 24 and 48 hours biofilms, 60 μM or 300 μM
  Rose Bengal uptake by mature biofilms (in words): dye concentration- and biofilm age-dependent manner

## CCN(Cc1cccc(S(=O)(=O)[O-])c1)c1ccc(C(=C2C=CC(=[N+](CC)Cc3cccc(S(=O)(=O)[O-])c3)C=C2)c2ccc(O)cc2S(=O)(=O)[O-])cc1.[Na+].[Na+] [Fast Green]
[2]
  effectiveness as stain of biofilms grown in the CDFF (FIG. 1): most effective stain
